Assay results as given in patent publication US20090176714A1, “METHOD OF REDUCING THE EFFECTS OF ABeta AND COMPOSITIONS THEREFORE” (priority 2004, published 2009).

Test system: hippocampal slice cultures
Test: Aβ-induced cell death (EthD-1/calcein AM, % Death) in organotypic hippocampal slice cultures
Assay type: cell-based, mouse
Protocol: Pups from C57B6/SJL mice were anaesthetized and decapitated at postnatal day 15. The brain was removed and placed in ice-cold dissecting medium (50% Minimum Essential Medium (Invitrogen, Carlsbad, Calif.), 50% Hank's Balanced Salt Solution (Invitrogen), 25 mM HEPES, and 36 mM glucose). Both hippocampi were dissected under a dissecting microscope and cut at 400 μm on a McIlwain tissue chopper. Slices were separated and placed on filter inserts with a 30 mm diameter and a 0.4 μm filter pore size (Millipore, Billerica, Mass.) held in 6-well culture plates. For the first 3 days, slices were kept in Neurobasal media with B-27 supplement, 1 mM glutamine, and 1% penicillin/streptomycin (Invitrogen). Subsequently, the media was changed every 3 days using media without antibiotics. Organotypic cultures were maintained in a humidified incubator at 37° C. in 5% O2 and 5% CO2 for 14 to 21 days.
Cell death and viability was determined on live slices using the fluorescent probes from Molecular Probes' Live/Dead Kit. After a 40 minute incubation in calcein AM (1:400) and ethidium homodimer (1:1000) in phosphate buffered saline, slices were visualized at 200× magnification with an inverted Nikon Diaphot 200 microscope using the Bio-Rad MRC-1024 Laser Scanning Confocal system (Hercules, Calif.). Random images of the neuronal fields were captured at the emission spectrum of each probe, and Scion Image software (Frederick, Md.) was used to quantify the number of live and dead cells. At least three areas including a neuronal field were imaged and used to determine the percent death for each slice. The percent death was calculated as the number of EthD-1 positive cells divided by the total number of EthD-1 and calcein AM positive cells.
β-amyloid1-42 and reverse Aβ (Aβ42-1) were obtained from BACHEM (Torrance, Calif.). These polypeptides were dissolved in 0.1% NH3OH at 222 μM. For treatments, Aβ was aggregated at 50 μM in Neurobasal media with B-27 supplement and 1 mM glutamine at 37° C. for 24 hours. Then, the slice culture media was removed, and the slices were treated with 1 mL of 25 μM or 50 μM Aβ, reverse Aβ, or vehicle for 24 hours. Human TTR (Calbiochem) or IGF-2 (Peprotech, Rocky Hill, N.J.) was added to slices together with the Aβ treatment at final concentrations of 3 μM (TTR) or 500 nM (IGF-2). sAPPα was prepared as described previously (Mattson et al., Neuron, 10:243-254 (1993)).
Unless otherwise stated, all sAPPα treatments were performed at 1 nM 48 hours prior to the addition of Aβ. Antibodies against TTR (C-20) or IGF-2 (F-20; 4 μg/mL; Santa Cruz) or sAPPα (6E10; 10 μg/mL; Chemicon) were added to slices together with the sAPPα treatment. Goat IgG (4 μg/mL; Santa Cruz) or mouse IgG1 (10 μg/mL; Chemicon) was added as a control. The 10 amino acid fragment of the carboxyl-terminal region of sAPPα (592-601 of APP695; SEVKMDAEFR; SEQ ID NO:1; Sigma) was added according to the same protocol for sAPPα.
SiRNA's were created based on the mouse mRNA sequences using the Ambion Silencer siRNA Construction Kit (Austin, Tex.). Several siRNA's were created by in vitro transcription for each silenced gene. Transfection was performed for 4 hours at 37° C. prior to vehicle or sAPPα treatment using 25 nM siRNA combined with the polyamines in the Ambion siPORT Amine Transfection Agent. Transfections were performed in Neurobasal media with 1 mM glutamine (Invitrogen). The successful mRNA target sequences are as follows, TTR: 5′-[…]-3′ (SEQ ID NO:16) and 5′-[…]-3′ (SEQ ID NO:17); IGF-2: 5′-AA-GGGGATAGAGATGTGAGAG-3′ (SEQ ID NO:18) and 5′-AAATTATGTGGT-AATTCTGCA-3′ (SEQ ID NO:19); IGF-1R: 5′-[…]-3′ (SEQ ID NO:20) and 5′-[…]-3′ (SEQ ID NO:21).
β-amyloid1-42 and reverse Aβ (Aβ42-1) were obtained from BACHEM (Torrance, Calif.). These peptides were dissolved in 0.1% NH3OH at 222 μM. For treatments, Aβ was aggregated at 50 μM in Neurobasal media with B-27 supplement and 1 mM glutamine at 37° C. for 24 hours. […]

[1] = 1 nM 48 hours prior to 25 μM Aβ (24 hours), FIG. 7

Substance | Protection against Aβ-induced death (% Death) [1] | Protection against Aβ-induced death (% Death, EthD-1 positive cells) (1 nM added 48 hours prior to 25 μM or 50 μM Aβ (24 hours), FIG. 4A) | Protection against Aβ-induced death (% Death) (1 nM 48 h prior to 25 μM Aβ (24 h), FIG. 12A) | Protection against Aβ-induced death (% Death) (1 nM 48 h prior to 25 μM Aβ (24 h), FIG. 12A, listed as tetramer) | Protection against Aβ-induced death (% Death) (48 h prior to 25 μM Aβ (24 h), FIG. 12B, 1 nM, final concentration of 1 mM) | Protection against Aβ-induced death (% Death) (48 h prior to 25 μM Aβ (24 h), FIG. 12B, 1 nM, final concentration of 1 mM, listed as tetramer) | Percent death compared to treatment with vehicle (25 μM Aβ, 24 hours) | Neurons that lost membrane integrity (EthD-1 positive) / percent death (25 μM or 50 μM Aβ, 24 hours, compared to reverse Aβ)
SEVKMDAEFR | completely protected | mimics the protective effect of sAPPα |  |  |  |  |  | 
DAEF [peptide of 4 residues within the 10 residue peptide (residues 597-600)] | sufficient to protect |  | protects against the Aβ-induced toxicity | completely protected | protects against the Aβ-induced toxicity | completely protected |  | 
β-amyloid1-42 [Aβ] |  |  |  |  |  |  | dramatic and significant increase | dramatic increase
